Data from patent US20250171776A1, “NON-CANONICAL CELL-PENETRATING PEPTIDES FOR ANTISENSE OLIGOMER DELIVERY” (priority 2023, published 2025).
Where two headings read alike, the source gives them in different places. Where no end group is shown, it is not given here. [ ]: non-standard residue; d: D form. Cit = NC(=O)NCCC[C@H](N)C(=O)O; Api = NC1(C(=O)O)CCNCC1; Dab = NCC[C@H](N)C(=O)O; Iph = iodophenylalanine

Tested on: HELA-654 cells
Experiment: Hela-654 eGFP assay (incucyte imaging, GFP positive cells, 72 h)
Format: cell-based
Conditions: for Percentage of GFP Positive Cells at 72 hours (20 μM): alanine scan, 20 μM of PPMO; for EC50: 72 h; for Percentage of GFP Positive Cells at 72 hours (30 μM): Iph scan, 30 μM of compound
Description: HELA-654 cells were imaged at 72 hours with an incucyte and the number of GFP positive cells versus total cell counts were calculated with the incucyte image analysis software. Statistical analysis was conducted using a one-way analysis of variance (ANOVA) test with Dunnett's multiple comparison test. Bars represent mean±standard deviation (SD), with P<0.05 was considered to indicate statistical significance, (**** p<0.0001, *** […], ** p<0.01, * p<0.05).
HELA-654 cells were imaged at 72 hours with an incucyte and the number of GFP positive cells versus total cell counts were calculated with the incucyte image analysis software.

[1] = chimeric peptide PMO conjugates, read-out: EC50 (at 72 h)
[2] = CXP1 Dab analogs, read-out: EC50 (at 72 h)

Row | Substance | Percentage of GFP Positive Cells at 72 hours (20 μM) | further results
1 | Ala-Gln-Lys-Thr-Ser-Iph-Gly-Arg-Gly-Pip-Lys-Trp-Lys-Lys (AQKTS[Iph]GRG[Api]KWKK; also: PMO conjugate) [PMO-CXP1B] | 50.5% | 
2 | Cit-Met-Phe-Gly-Pip-Dab-Dab-Lys-Ala-Pro-Lys-Trp-Lys-Lys-Gly-Lys-Gln-Lys-Thr-Ser-Iph-Gly-Arg-Gly-Pip-Lys-Trp-Lys-Lys ([Cit]MFG[Api][Dab][Dab]KAPKWKKGKQKTS[Iph]GRG[Api]KWKK; also: PMO conjugate) [PMO-CXP4-CXP1] |  | EC50 [1]: 59.2 µM
3 | Dab-Gln-Dab-Thr-Ser-Iph-Gly-Arg-Gly-Dab-Dab-Trp-Dab-Dab-Lys-Trp-Lys-Lys ([Dab]Q[Dab]TS[Iph]GRG[Dab][Dab]W[Dab][Dab]KWKK; also: PMO conjugate) [PMO-CXP1AE] |  | EC50 [2]: 6.38 µM
4 | Dab-Gln-Dab-Thr-Ser-Iph-Gly-Arg-Gly-Pip-Dab-Trp-Dab-Dab-Lys-Trp-Lys-Lys ([Dab]Q[Dab]TS[Iph]GRG[Api][Dab]W[Dab][Dab]KWKK; also: PMO conjugate) [PMO-CXP1AC] |  | EC50 [2]: 4.75 µM
5 | Dab-Gln-Dab-Thr-Ser-Iph-Gly-Dab-Gly-Dab-Dab-Trp-Dab-Dab-Lys-Trp-Lys-Lys [PMO-CXP1AF] |  | EC50 [2]: 5.73 µM
6 | Dab-Gln-Dab-Thr-Ser-Iph-Gly-Dab-Gly-Pip-Dab-Trp-Dab-Dab-Lys-Trp-Lys-Lys [PMO-CXP1AD] |  | EC50 [2]: 5.64 µM
7 | Dab-Pro-Arg-Dab-Leu-His-Ser-Dab-Ala-Thr-Lys-Trp-Lys-Lys ([Dab]PR[Dab]LHS[Dab]ATKWKK; also: PMO conjugate) [PMO-CXP5] |  | EC50 (read-out: EC50 (at 72 h)): 10 µM
8 | Dab-Val-Ala-Arg-Asn-Asn-Dab-Thr-Lys-Gly-Lys-Trp-Lys-Lys-Gly-Lys-Gln-Lys-Thr-Ser-Iph-Gly-Arg-Gly-Pip-Lys-Trp-Lys-Lys [PMO-CXP3-CXP1] |  | EC50 [1]: 0.026 µM
9 | GCTATTACCTTAACCCAG (all phosphorodiamidate morpholino (PMO)) [reference compound] |  | EC50 (read-out: EC50 (at 72 h)): 22.7 µM
10 | Iph-Gln-Lys-Thr-Ser-Iph-Gly-Arg-Gly-Pip-Lys-Trp-Lys-Lys ([Iph]QKTS[Iph]GRG[Api]KWKK; also: PMO conjugate) [PMO-CXP1Q] |  | Percentage of GFP Positive Cells at 72 hours (30 μM): 85%
11 | Lys-Ala-Lys-Thr-Ser-Iph-Gly-Arg-Gly-Pip-Lys-Trp-Lys-Lys (KAKTS[Iph]GRG[Api]KWKK; also: PMO conjugate) [PMO-CXP1C] | 50.0% | 
12 | Lys-Gln-Ala-Thr-Ser-Iph-Gly-Arg-Gly-Pip-Lys-Trp-Lys-Lys (KQATS[Iph]GRG[Api]KWKK; also: PMO conjugate) [PMO-CXP1D] | 48.2% | 
13 | Lys-Gln-Iph-Thr-Ser-Iph-Gly-Arg-Gly-Pip-Lys-Trp-Lys-Lys (KQ[Iph]TS[Iph]GRG[Api]KWKK; also: PMO conjugate) [PMO-CXP1R] |  | Percentage of GFP Positive Cells at 72 hours (30 μM): 87.6%
14 | Lys-Gln-Lys-Ala-Ser-Iph-Gly-Arg-Gly-Pip-Lys-Trp-Lys-Lys (KQKAS[Iph]GRG[Api]KWKK; also: PMO conjugate) [PMO-CXP1E] | 70.5% | 
15 | Lys-Gln-Lys-Thr-Ala-Iph-Gly-Arg-Gly-Pip-Lys-Trp-Lys-Lys (KQKTA[Iph]GRG[Api]KWKK; also: PMO conjugate) [PMO-CXP1F] | 65.5% | 
16 | Lys-Gln-Lys-Thr-Ser-Ala-Gly-Arg-Gly-Pip-Lys-Trp-Lys-Lys (KQKTSAGRG[Api]KWKK; also: PMO conjugate) [PMO-CXP1G] | 55.8% | 
17 | Lys-Gln-Lys-Thr-Ser-Iph-Ala-Arg-Ala-Pip-Lys-Trp-Lys-Lys (KQKTS[Iph]ARA[Api]KWKK; also: PMO conjugate) [PMO-CXP1P] | 41.6% | 
18 | Lys-Gln-Lys-Thr-Ser-Iph-Ala-Arg-Gly-Pip-Lys-Trp-Lys-Lys (KQKTS[Iph]ARG[Api]KWKK; also: PMO conjugate) [PMO-CXP1H] | 65.5% | 
19 | Lys-Gln-Lys-Thr-Ser-Iph-Gly-Ala-Gly-Pip-Lys-Trp-Lys-Lys (KQKTS[Iph]GAG[Api]KWKK; also: PMO conjugate) [PMO-CXP1I] | 42.0% | 
20 | Lys-Gln-Lys-Thr-Ser-Iph-Gly-Arg-Ala-Pip-Lys-Trp-Lys-Lys (KQKTS[Iph]GRA[Api]KWKK; also: PMO conjugate) [PMO-CXP1J] | 53.2% | 
21 | Lys-Gln-Lys-Thr-Ser-Iph-Gly-Arg-Gly-Ala-Lys-Trp-Lys-Lys (KQKTS[Iph]GRGAKWKK; also: PMO conjugate) [PMO-CXP1K] | 39.3% | 
22 | Lys-Gln-Lys-Thr-Ser-Iph-Gly-Arg-Gly-Iph-Lys-Trp-Lys-Lys (KQKTS[Iph]GRG[Iph]KWKK; also: PMO conjugate) [PMO-CXP1T] |  | Percentage of GFP Positive Cells at 72 hours (30 μM): 36.5%
23 | Lys-Gln-Lys-Thr-Ser-Iph-Gly-Arg-Gly-Lys-Lys-Trp-Lys-Lys (KQKTS[Iph]GRGKKWKK; also: PMO conjugate) [PMO-CXP1Y] |  | EC50 (CXP1 analogs (unnatural amino acids replaced), read-out: EC50 (72 h)): 14.4 µM
24 | Lys-Gln-Lys-Thr-Ser-Iph-Gly-Arg-Gly-Pip-Ala-Trp-Lys-Lys (KQKTS[Iph]GRG[Api]AWKK; also: PMO conjugate) [PMO-CXP1L] | 41.8% | 
25 | Lys-Gln-Lys-Thr-Ser-Iph-Gly-Arg-Gly-Pip-Iph-Trp-Lys-Lys (KQKTS[Iph]GRG[Api][Iph]WKK; also: PMO conjugate) [PMO-CXP1U] |  | Percentage of GFP Positive Cells at 72 hours (30 μM): 66.4%
26 | Lys-Gln-Lys-Thr-Ser-Iph-Gly-Arg-Gly-Pip-Lys-Ala-Lys-Lys (KQKTS[Iph]GRG[Api]KAKK; also: PMO conjugate) [PMO-CXP1M] | 51.0% | 
27 | Lys-Gln-Lys-Thr-Ser-Iph-Gly-Arg-Gly-Pip-Lys-Trp-Ala-Lys (KQKTS[Iph]GRG[Api]KWAK; not fully specified (C-terminus); printed as Lys-Gln-Lys-Thr-Ser-Iph-Gly-Arg-Gly-Pip-Lys-Trp-Ala-Lys; also: PMO conjugate) [PMO-CXP1N] | 45.4% | 
28 | Lys-Gln-Lys-Thr-Ser-Iph-Gly-Arg-Gly-Pip-Lys-Trp-Iph-Lys [PMO-CXP1V] |  | Percentage of GFP Positive Cells at 72 hours (30 μM): 86.4%
29 | Lys-Gln-Lys-Thr-Ser-Iph-Gly-Arg-Gly-Pip-Lys-Trp-Lys-Ala-Lys-Trp-Lys-Lys (KQKTS[Iph]GRG[Api]KWKAKWKK; not fully specified (C-terminus); printed as Lys-Gln-Lys-Thr-Ser-Iph-Gly-Arg-Gly-Pip-Lys-Trp-Lys-Ala-Lys-Trp-Lys-Lys; also: PMO conjugate) [PMO-CXP1O] | 39.2% | 
30 | Lys-Gln-Lys-Thr-Ser-Iph-Gly-Arg-Gly-Pip-Lys-Trp-Lys-Iph-Lys-Trp-Lys-Lys (KQKTS[Iph]GRG[Api]KWK[Iph]KWKK; not fully specified (C-terminus); printed as Lys-Gln-Lys-Thr-Ser-Iph-Gly-Arg-Gly-Pip-Lys-Trp-Lys-Iph-Lys-Trp-Lys-Lys; also: PMO conjugate) [PMO-CXP1W] |  | Percentage of GFP Positive Cells at 72 hours (30 μM): 94.11%
